Source: patent publication US6482609B1, “Isolated human EDG-4 receptor and polynucletide encoding said receptor” (priority 1997, dated 2002)

Columns and labels:
[1] = system: Human Umbilical Vein Endothelial Cells (HUVEC); assay: IL-8 ELISA on primary cultured HUVEC treated with lysolipids; assay type: cell-based; conditions: 5 μM, 6 hr
Description: Plating, Pretreatment and Treatment of HUVEC
Procedures were followed as detailed above in “Procedure #1 for HeLa Cells” with the following exceptions:
Cells were plated at 20,000 cells/well into 24-well plates. The next day, cells were serum-starved overnight in EBM medium (Clonetics) with 0.5% FBS, and then treated in EBM without FBS for 6 hr with the following lysolipids:
Supematants were collected and IL-8 levels were deternined using ELISA as described previously.

EDG-2 [2] = molecular target: T1, EDG-2 (Homo sapiens, UniProt Q92633); assay: SRE reporter in 293-EBNA cells, EDG-2; assay type: cell-based; conditions: 10 μM LPA
T1 construct: expressed in transfected cells; host or cells: 293-EBNA
From the text: (§1) LPA, like S1P, is abundant in serun, but not plasma. Moreover, LPA is produced as a consequence of phospholipase A2 with or without the contribution of phospholipase D (depending on the phospholipid substrate). […] To date we have identified three subtypes of edg receptors that respond to LPA as an agonist. These are EDG-2, EDG-6 and EDG-5 (referred to also as LPA1, LPA2 and LPA3, respectively (Chun, J, Contos, J J A and Munroe, D G. 1998. A growing family of receptor genes for lysophosphatidic acid (LPA) and other lyso-phospholipids. Cell Biochem Biophys (in press)). The EDG-5 receptor is set out in co-pending U.S. application Ser. No. 08/997,803 to MLUNROE et al., incorporated herein by reference and the amino acid sequence and cDNA sequence for the EDG-6 receptor is set out in FIGS. 21 and 22, respectively. To determine whether these receptors might mediate inflammatory responses, each was cotransfected separately with SRE, NF-κB or AP-1 reporter genes. […] This transcription factor, like NF-κB has been implicated in inflammatory and neoplastic signal transduction., though the gene targets of its action are largely distinct from those of NF-κB (Adcock IM. 1997. Transcription factors as activators of gene transcription: AP-1 and NF-κB. Monaldi Arch Chest Dis 52:178-186. Review). […]

EDG-2 [3] = molecular target: T1, EDG-2; assay: AP-1 reporter in 293-EBNA cells, EDG-2; assay type: cell-based; conditions: 10 μM LPA
From the text: as §1

[4] = system: 293-EBNA cells transfected with empty expression vector pcDNA3; assay: AP-1 reporter in 293-EBNA cells, empty vector pcDNA3; assay type: cell-based; conditions: 10 μM LPA
From the text: as §1

EDG-2 [5] = molecular target: T1, EDG-2; assay: NF-κB reporter in 293-EBNA cells, EDG-2; assay type: cell-based; conditions: 10 μM LPA, overnight
From the text: as §1

EDG-5 [6] = molecular target: T2, EDG-5 (Homo sapiens, UniProt Q9UBY5); assay: NF-κB luciferase reporter in 293-EBNA cells, EDG-5; assay type: cell-based; conditions: 10 μM LPA, overnight
T2 construct: expressed in transfected cells; host or cells: 293-EBNA
T2 sequence (Q9UBY5 1-353): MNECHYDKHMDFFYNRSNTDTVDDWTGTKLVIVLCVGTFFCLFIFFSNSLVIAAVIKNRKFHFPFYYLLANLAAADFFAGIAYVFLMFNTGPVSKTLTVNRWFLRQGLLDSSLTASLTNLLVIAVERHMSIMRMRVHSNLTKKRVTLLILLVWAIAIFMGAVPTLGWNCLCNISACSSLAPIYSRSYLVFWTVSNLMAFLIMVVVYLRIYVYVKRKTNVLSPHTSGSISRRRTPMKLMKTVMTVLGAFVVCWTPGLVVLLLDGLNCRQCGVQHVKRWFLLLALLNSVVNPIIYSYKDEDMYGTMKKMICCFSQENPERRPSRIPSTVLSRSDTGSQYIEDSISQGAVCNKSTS
Description: Transient Transfection Protocol for 293-EBNA
(§2) The above protocol for assay 1 was followed except for the following changes:
(§3) 2) 3 μg NFκB-tk-p4Luc reporter DNA and 3 μg pC3-hedg1, pC3-hedg3, pC3-redg4, pC3-hedg5 or pcDNA3 DNA was diluted in 240 μl OPTI-MEM (Gibco; Cat. 31985-062)
1) 0.01×10^6 cells were plated per well of a 96-well Blackview plate coated with polyD-lysine. No cells were plated in the outside wells of the 96-well plate.
LPA, like S1P, is abundant in serun, but not plasma. Moreover, LPA is produced as a consequence of phospholipase A2 with or without the contribution of phospholipase D (depending on the phospholipid substrate). […] To date we have identified three subtypes of edg receptors that respond to LPA as an agonist. These are EDG-2, EDG-6 and EDG-5 (referred to also as LPA1, LPA2 and LPA3, respectively (Chun, J, Contos, J J A and Munroe, D G. 1998. A growing family of receptor genes for lysophosphatidic acid (LPA) and other lyso-phospholipids. Cell Biochem Biophys (in press)). The EDG-5 receptor is set out in co-pending U.S. application Ser. No. 08/997,803 to MLUNROE et al., incorporated herein by reference and the amino acid sequence and cDNA sequence for the EDG-6 receptor is set out in FIGS. 21 and 22, respectively. To determine whether these receptors might mediate inflammatory responses, each was cotransfected separately with SRE, NF-κB or AP-1 reporter genes. […]

EDG-6 [7] = assay: AP-1 reporter in 293-EBNA cells, EDG-6; assay type: cell-based, human; conditions: 10 μM LPA
From the text: as §1
Target sequence in this assay (Q9HBW0 1-340 limits assumed): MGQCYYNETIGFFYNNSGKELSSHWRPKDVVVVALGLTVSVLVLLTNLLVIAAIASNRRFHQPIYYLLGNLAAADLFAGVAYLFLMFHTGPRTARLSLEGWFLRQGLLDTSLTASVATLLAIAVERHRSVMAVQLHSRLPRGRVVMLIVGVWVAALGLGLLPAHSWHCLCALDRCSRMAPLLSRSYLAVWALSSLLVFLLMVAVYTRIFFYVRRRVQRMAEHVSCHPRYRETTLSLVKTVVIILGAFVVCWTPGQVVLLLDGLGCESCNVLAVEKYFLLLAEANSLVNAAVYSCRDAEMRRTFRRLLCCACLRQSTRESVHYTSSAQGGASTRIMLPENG

[8] = system: 293-EBNA cells transfected with empty expression vector pcDNA3; assay: SRE luciferase reporter in 293-EBNA cells, empty vector pcDNA3; assay type: cell-based; conditions: 10 μM LPA
Description: NE-κB activates gene expression by binding to specific DNA sequences found in the promoters of genes regulated by this inflammation-related transcription factor. […] The SRE reporter was identical to the NF-κB reporter, except that the NF-κB binding sites were replaced with 2 SRE sites. The new reporter was called 2XSREtk-p4Luc-zeo.
The protocol described in Example 11 for Assay 1 was followed except for the following changes:
(§4) 2) SRE Cotransfection: 0.5 μg of 2XSREtk-p4Luc-zeo reporter DNA and 3.5 μg pcDNA3, EDG-1, EDG-3 (pC3-hE3HP2, different from the clone used in Assay 2 of Example 11) or the newly cloned human EDG-4 (pC3-hedg4#36); NF-κB Cotransfection: 2 μg 6XNFκBtk-p4Luc-zeo reporter DNA and 2.0 μg pcDNA3, EDG-1, EDG-3 (pC3-hE3HP2), or EDG-4 (pC3-hedg4#36). Expression plasmid and reporter plasmid DNA samples were combined and diluted in 750 μl of DMEM/F12 (serum free media) and 20 μl Plus Reagent (Lipofectamine Plus Kit, Life Technologies Cat. 10964-013), and incubated at room temperature for 15 min.
(§5) 1) Media was removed and cells treated with compounds diluted in DMEM/F12 media.
(§6) 2) The cells were treated for 6 hours.
Transfection was accomplished using the Lipofectamine Plus kit (Life Technologies, Cat. 10964-013), using the manufacturer's recommended conditions.
(§7) 293-EBNA cells were grown, lipofected in monolayer cultures, and pretreated as described above for Example 11, assay #1, except that NF-κB and AP-1 reporter-transfected cells were pretreated for 6 hr in medium containing 0.5% FBS, then treated overnight in the same medium with or without 10 μM LPA.

HL-60 cells = assay: IL-8 ELISA on HL-60 cells; assay type: cell-based, human; conditions: 1, 6 or 24 hr, S1P or LPA up to 3 μM, TNF-α 10 ng/ml
Description: Procedure for HL-60 Cells:
Cells: HL-60 (promyelocytic, human) suspension cells
Media: RPMI 1640 medium with 2 mM L-glutamine adjusted to contain 4.5 g/L glucose, 10 mM HEPES, and 1.0 mM sodium pyruvate+10% FBS
1) Cells were plated at a density of 0.25×10^6 cells/ml.
2) Cell pellcts were resuspended in 0.5% FBS media at a density of approximately 1×10^6 cells/ml.
1) Made up all required solutions in 0.5% FBS media (control).
2) 1.4 ml appropriate treatments were added to each well of a 6-well plate.
5) 100 μl cell suspension was added to each well.
7) After the specified time cell supematants were collected into 1.5 ml eppendorf tubes, spun down at 14000 rpm for 5 minutes and stored at −20° C.
D. Refer to Procedure #1 For HeLa Cells (D).

EDG-5 [9] = molecular target: T2, EDG-5; assay: AP-1 reporter in 293-EBNA cells, EDG-5; assay type: cell-based; conditions: 10 μM LPA
From the text: as §1

EDG-6 [10] = assay: SRE reporter in 293-EBNA cells, EDG-6; assay type: cell-based, human; conditions: 10 μM LPA
From the text: as §1
Target sequence in this assay (Q9HBW0 1-330 limits assumed): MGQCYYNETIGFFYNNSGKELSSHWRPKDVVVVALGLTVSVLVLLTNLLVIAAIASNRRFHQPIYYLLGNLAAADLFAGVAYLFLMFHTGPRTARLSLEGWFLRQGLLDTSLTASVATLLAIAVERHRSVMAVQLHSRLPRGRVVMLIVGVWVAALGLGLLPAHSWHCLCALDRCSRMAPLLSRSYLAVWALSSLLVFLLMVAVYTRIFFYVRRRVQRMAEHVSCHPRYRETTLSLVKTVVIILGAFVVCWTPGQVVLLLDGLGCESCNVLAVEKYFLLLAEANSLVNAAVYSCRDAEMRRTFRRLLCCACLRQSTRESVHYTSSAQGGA

[11] = system: 293-EBNA cells transfected with empty expression vector pcDNA3; assay: NF-κB luciferase reporter in 293-EBNA cells, empty vector pcDNA3; assay type: cell-based; conditions: pcDNA3; 10 μM LPA; overnight
Description: Monolayer Transient Transfection Protocol for 293-EBNA
2) 6.6 μg NF-κB-tk-p4Luc reporter DNA and 6.6 μg of pC3-redg4 (expressing rat EDG-4), or pcDNA3 DNA was diluted in 500 μl OPTI-MEM (Gibco; Cat. 31985-062)
2) After 6 hrs, media was removed and cells treated with compounds diluted in 0.5% FBS media (140 μl added to each well).
3) Cells were treated for 24 hrs.
1) Luclite kit (Packard; Cat. 6016911) was used for luciferase assay. All reagents were brought to room temperature before use.
7) After incubation, plates were counted in a 12-detector Packard Top Count on a program without dark delay.
as §2, §3, §4, §5, §6, §7

EDG-6 [12] = assay: NF-κB reporter in 293-EBNA cells, EDG-6; assay type: cell-based, human; conditions: 10 μM LPA, overnight
From the text: as §1
Target sequence in this assay (Q9HBW0 1-340 limits assumed): as the sequence (Q9HBW0 1-340 limits assumed) above

EDG-5 [13] = molecular target: T2, EDG-5; assay: SRE reporter in 293-EBNA cells, EDG-5; assay type: cell-based; conditions: 10 μM LPA
From the text: as §1

293-EBNA cells = assay: IL-8 production in untransfected 293-EBNA cells; assay type: cell-based

T1 sequence (Q92633 whole entry): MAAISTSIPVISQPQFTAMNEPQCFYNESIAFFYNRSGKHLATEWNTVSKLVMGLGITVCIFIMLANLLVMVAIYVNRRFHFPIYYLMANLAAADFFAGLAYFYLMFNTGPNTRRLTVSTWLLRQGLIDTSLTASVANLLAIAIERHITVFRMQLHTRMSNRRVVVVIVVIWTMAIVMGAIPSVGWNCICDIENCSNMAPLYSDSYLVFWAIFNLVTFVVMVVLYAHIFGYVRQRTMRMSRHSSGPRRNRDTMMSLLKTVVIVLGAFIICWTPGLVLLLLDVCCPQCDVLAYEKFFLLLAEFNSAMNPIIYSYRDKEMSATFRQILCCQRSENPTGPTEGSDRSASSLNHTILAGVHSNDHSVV

Induction of the SRE reporter (EDG-2 [2]): greater than 2 fold
Induction of the AP-1 reporter (EDG-2 [3]): greater than 2 fold
Activation of the NF-κB reporter (EDG-2 [5]): 3-4 fold
Activation of the NF-κB reporter (EDG-5 [6]): 3-4 fold
Induction of the AP-1 reporter (EDG-5 [9]): greater than 2 fold
Induction of the SRE reporter (EDG-5 [13]): greater than 2 fold
Substance: lysophosphatidic acid [LPA]
IL-8 levels increase over untreated controls [1]: 3 fold
Endogenous AP-1 reporter response vs untreated control cells [4]: about 1.5 fold
AP-1 reporter induction (EDG-6 [7]): strongly induced both reporters
Endogenous SRE reporter response vs untreated control cells [8]: about 1.5 fold
IL-8 release (HL-60 cells): no such release
SRE reporter induction (EDG-6 [10]): strongly induced both reporters
NF-κB reporter response in control cells [11]: no response to LPA
Activation of the NF-κB reporter (EDG-6 [12]): 3-4 fold
IL-8 production (293-EBNA cells): no IL-8 production
